The target in data set [1] is T1, Tyrosine-protein kinase JAK3 (Homo sapiens) (UniProt P52333).
T1 sequence (whole entry): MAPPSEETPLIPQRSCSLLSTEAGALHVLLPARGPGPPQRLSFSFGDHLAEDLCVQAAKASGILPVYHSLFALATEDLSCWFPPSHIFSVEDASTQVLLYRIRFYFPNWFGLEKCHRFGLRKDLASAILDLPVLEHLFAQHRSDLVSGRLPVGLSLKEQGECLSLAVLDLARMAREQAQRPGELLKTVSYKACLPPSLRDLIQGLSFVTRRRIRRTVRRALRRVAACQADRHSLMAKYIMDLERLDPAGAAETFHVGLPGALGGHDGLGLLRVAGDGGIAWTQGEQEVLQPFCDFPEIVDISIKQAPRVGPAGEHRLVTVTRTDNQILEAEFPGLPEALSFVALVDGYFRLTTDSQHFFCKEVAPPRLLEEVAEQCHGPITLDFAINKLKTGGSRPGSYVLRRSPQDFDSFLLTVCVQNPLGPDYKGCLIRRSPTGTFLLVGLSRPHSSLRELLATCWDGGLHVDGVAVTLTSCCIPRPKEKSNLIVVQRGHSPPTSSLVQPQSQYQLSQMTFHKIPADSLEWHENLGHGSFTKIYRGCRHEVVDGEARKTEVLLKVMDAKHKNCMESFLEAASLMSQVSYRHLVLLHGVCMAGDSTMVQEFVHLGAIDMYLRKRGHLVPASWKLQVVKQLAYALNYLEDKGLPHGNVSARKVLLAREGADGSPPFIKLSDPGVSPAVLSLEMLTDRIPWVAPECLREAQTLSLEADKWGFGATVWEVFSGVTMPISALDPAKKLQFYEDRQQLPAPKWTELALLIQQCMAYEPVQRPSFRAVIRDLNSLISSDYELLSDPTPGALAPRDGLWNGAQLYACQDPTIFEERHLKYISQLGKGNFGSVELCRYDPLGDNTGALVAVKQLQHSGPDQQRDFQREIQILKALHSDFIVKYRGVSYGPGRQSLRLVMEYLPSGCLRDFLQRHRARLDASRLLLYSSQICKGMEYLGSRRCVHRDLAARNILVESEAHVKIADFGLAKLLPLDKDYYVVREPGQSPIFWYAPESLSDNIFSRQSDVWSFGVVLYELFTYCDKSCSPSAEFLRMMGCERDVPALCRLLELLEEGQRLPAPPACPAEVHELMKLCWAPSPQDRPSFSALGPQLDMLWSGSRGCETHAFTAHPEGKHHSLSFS
The data set can be described thus: Inhibition of human JAK3 at 0.5 uM relative to control.

Data set [2] concerns the target Tyrosine-protein kinase BTK (Homo sapiens) (UniProt Q06187). In words: Inhibition of BTK (unknown origin) at 0.5 uM assessed as competition rate relative to control.
Data set [3] has as its system U-937. In words: Induction of cell cycle arrest in human U-937 cells assessed as downregulation of Cyclic E1 at 0 to 300 nM measured after 24 hrs by western blot analysis. The data set is classed as functional, cell-based. As to conditions: dose 0-300 nM.
Data set [4] relates to U-937. The data set can be described thus: Induction of cell cycle arrest in human U-937 cells assessed as accumulation at G2/M phase at 33 nM measured after 24 hrs by propidium iodide staining based flow cytometric analysis (reference value: 21.41%). The data set is classed as functional.
Data set [5] deals with Tyrosine-protein kinase JAK2 (Homo sapiens, UniProt O60674). The data set can be described thus: Inhibition of human JAK2 at 0.5 uM relative to control.
For data set [6], the target named is Receptor tyrosine-protein kinase erbB-4 (Homo sapiens) (UniProt Q15303). The data set can be described thus: Inhibition of HER4 (unknown origin) at 0.5 uM relative to control.
Data set [7] deals with T2, Tyrosine-protein kinase JAK3 (Homo sapiens, UniProt P52333).
T2 sequence (P52333 whole entry): T1 sequence (whole entry)
The data set can be described thus: Inhibition of human JAK3.

Data set [8] deals with Tyrosine-protein kinase Tec (Homo sapiens) (UniProt P42680). In words: Inhibition of TEC (unknown origin) at 0.5 uM relative to control.
Data set [9] deals with T3, Signal transducer and activator of transcription 5A (Homo sapiens) (UniProt P42229).
T3 sequence (whole entry): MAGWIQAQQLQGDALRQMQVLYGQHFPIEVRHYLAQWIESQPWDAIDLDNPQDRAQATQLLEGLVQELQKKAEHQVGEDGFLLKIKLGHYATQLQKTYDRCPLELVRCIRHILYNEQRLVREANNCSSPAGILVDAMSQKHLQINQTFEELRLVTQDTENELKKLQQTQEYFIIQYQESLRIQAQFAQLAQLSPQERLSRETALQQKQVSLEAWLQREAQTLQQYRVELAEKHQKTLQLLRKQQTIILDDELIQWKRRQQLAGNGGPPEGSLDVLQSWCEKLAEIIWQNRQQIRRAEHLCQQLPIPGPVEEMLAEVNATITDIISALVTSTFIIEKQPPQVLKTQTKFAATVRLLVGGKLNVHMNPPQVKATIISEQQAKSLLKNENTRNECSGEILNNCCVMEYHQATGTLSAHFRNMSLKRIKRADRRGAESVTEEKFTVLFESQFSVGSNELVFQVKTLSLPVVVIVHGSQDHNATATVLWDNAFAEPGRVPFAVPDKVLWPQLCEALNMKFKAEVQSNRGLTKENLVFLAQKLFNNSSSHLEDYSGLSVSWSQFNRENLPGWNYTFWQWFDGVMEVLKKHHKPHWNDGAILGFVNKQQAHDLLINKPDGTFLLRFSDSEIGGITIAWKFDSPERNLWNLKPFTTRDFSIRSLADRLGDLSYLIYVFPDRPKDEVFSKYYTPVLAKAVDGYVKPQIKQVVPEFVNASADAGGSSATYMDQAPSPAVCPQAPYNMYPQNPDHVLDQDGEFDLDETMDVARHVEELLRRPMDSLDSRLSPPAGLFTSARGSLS
The data set can be described thus: Inhibition of STAT5 activation in human U-937 cells assessed as decrease in P-STAT5 incubated for 0 to 24 hrs by Western blot analysis. The class given is cell-based. As to conditions: time 0-24 hrs, DDE = dose-dependent effect.

Data set [10] deals with U-937. In words: Induction of cell cycle arrest in human U-937 cells assessed as accumulation at G2/M phase at 11 nM measured after 24 hrs by propidium iodide staining based flow cytometric analysis (reference value: 21.41%). The data set is classed as functional.
Data set [11] concerns the target T1, Tyrosine-protein kinase JAK3 (Homo sapiens). The data set can be described thus: Irreversible inhibition of JAK3 in human U-937 cells assessed as decrease in P-JAK3 phosphorylation at 200 uM pretreated for 8 hrs followed by compound washout by immunoblotting analysis. The class given is cell-based.
A short description of data set [12]: Oral bioavailability in 12 hr fasted SPF Sprague-Dawley rat at 15 mg/kg upon 2 hrs fasting post-administration measured upto 24 hrs. The class given is ADME, organism-based. As to conditions: in vivo.
Data set [13] can be described thus: Toxicity in CB17-SCID mouse xenografted with human U-937 cells assessed as body weight loss at 12.5 to 50 mg/kg, po twice daily for 10 days. As to conditions: in vivo, 240 h, dose 12.5-50 mg/kg, time 10 day. The data set is classed as organism-based.
For data set [14], the system named is BaF3. In words: cells. As to conditions: Mus musculus, BaF3, 72 h.
Description: Antiproliferative activity against mouse BaF3 parent cell measured after 72 hrs by CCK-8 assay
Data set [15] deals with BaF3. In words: cells. As to conditions: Mus musculus, BaF3, 72 h. The source holds these as a separate data set.
Data set [16] has as its target Tyrosine-protein kinase Blk (Homo sapiens) (UniProt P51451). The data set can be described thus: Inhibition of BLK (unknown origin) at 0.5 uM relative to control.

Activity calls are given as the source filed them. No cut-off for these calls is given here.

The results in this text go back to ChEMBL document CHEMBL5137068, “Discovery of Hexahydrofuro[3,2-b]furans as New Kinase-Selective and Orally Bioavailable JAK3 Inhibitors for the Treatment of Leukemia Harboring a JAK3 Activating Mutant” (J Med Chem, 2022).

Tyrosine-protein kinase BTK (Homo sapiens), sequence (Q06187 whole entry): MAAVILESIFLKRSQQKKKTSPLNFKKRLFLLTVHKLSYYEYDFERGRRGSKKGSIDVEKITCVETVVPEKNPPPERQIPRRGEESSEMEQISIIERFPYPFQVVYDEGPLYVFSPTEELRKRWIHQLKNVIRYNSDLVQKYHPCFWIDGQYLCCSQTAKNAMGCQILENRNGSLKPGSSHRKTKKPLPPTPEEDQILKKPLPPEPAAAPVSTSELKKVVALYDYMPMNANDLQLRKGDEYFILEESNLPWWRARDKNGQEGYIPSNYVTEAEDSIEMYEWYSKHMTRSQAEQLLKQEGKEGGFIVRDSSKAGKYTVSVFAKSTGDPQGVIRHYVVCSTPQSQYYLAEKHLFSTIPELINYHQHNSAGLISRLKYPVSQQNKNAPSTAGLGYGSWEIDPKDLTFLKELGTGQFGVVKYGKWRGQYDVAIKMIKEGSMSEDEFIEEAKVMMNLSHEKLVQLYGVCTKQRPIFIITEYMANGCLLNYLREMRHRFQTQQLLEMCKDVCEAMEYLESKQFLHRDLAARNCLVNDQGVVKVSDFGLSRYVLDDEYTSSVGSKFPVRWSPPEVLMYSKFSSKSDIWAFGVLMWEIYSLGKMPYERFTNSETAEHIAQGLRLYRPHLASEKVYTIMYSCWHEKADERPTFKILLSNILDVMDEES
Tyrosine-protein kinase JAK2, sequence (O60674 whole entry): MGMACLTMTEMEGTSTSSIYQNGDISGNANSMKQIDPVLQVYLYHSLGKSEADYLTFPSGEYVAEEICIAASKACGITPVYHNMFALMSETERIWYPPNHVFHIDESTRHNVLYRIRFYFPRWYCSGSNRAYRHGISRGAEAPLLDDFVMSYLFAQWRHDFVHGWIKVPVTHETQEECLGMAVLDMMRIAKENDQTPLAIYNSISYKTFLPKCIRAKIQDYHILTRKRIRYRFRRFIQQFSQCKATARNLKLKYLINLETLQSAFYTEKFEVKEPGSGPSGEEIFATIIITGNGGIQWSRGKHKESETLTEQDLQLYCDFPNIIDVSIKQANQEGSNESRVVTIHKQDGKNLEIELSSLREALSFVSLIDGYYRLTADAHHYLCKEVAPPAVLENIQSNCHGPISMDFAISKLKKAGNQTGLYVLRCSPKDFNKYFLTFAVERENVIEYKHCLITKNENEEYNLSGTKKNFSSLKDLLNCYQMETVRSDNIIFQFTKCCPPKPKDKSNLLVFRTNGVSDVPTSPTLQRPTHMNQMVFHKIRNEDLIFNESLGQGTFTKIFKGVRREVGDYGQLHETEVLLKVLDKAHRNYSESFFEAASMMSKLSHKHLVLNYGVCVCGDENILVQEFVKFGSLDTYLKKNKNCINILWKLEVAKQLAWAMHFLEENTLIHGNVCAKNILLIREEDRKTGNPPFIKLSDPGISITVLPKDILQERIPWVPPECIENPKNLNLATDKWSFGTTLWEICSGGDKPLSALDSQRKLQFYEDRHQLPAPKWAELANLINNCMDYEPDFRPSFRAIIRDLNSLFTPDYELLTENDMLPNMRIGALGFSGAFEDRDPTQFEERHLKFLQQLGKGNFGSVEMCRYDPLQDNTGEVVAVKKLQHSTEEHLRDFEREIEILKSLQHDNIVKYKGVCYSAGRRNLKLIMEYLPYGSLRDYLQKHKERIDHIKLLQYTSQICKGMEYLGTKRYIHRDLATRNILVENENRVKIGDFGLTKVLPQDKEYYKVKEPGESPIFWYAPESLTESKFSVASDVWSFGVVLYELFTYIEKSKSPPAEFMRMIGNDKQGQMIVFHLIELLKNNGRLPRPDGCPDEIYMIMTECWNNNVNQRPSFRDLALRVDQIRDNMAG
Tyrosine-protein kinase Tec (Homo sapiens), sequence (P42680 whole entry): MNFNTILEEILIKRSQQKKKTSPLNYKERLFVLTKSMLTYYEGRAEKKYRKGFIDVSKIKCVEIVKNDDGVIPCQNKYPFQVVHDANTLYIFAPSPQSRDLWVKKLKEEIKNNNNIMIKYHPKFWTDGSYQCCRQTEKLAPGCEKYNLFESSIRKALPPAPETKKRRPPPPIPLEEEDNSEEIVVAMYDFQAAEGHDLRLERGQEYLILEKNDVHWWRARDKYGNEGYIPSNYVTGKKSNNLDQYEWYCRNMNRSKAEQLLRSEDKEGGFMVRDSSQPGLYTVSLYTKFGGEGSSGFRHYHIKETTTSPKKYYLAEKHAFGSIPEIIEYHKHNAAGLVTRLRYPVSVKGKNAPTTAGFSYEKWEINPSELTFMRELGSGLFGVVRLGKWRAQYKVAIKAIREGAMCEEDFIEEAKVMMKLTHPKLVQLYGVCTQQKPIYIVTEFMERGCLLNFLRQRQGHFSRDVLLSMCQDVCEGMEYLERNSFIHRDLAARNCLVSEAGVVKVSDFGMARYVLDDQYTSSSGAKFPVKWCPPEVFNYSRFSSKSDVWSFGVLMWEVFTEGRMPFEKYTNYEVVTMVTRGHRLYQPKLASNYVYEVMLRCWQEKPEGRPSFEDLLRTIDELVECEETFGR
Receptor tyrosine-protein kinase erbB-4 (Homo sapiens), sequence (Q15303 whole entry): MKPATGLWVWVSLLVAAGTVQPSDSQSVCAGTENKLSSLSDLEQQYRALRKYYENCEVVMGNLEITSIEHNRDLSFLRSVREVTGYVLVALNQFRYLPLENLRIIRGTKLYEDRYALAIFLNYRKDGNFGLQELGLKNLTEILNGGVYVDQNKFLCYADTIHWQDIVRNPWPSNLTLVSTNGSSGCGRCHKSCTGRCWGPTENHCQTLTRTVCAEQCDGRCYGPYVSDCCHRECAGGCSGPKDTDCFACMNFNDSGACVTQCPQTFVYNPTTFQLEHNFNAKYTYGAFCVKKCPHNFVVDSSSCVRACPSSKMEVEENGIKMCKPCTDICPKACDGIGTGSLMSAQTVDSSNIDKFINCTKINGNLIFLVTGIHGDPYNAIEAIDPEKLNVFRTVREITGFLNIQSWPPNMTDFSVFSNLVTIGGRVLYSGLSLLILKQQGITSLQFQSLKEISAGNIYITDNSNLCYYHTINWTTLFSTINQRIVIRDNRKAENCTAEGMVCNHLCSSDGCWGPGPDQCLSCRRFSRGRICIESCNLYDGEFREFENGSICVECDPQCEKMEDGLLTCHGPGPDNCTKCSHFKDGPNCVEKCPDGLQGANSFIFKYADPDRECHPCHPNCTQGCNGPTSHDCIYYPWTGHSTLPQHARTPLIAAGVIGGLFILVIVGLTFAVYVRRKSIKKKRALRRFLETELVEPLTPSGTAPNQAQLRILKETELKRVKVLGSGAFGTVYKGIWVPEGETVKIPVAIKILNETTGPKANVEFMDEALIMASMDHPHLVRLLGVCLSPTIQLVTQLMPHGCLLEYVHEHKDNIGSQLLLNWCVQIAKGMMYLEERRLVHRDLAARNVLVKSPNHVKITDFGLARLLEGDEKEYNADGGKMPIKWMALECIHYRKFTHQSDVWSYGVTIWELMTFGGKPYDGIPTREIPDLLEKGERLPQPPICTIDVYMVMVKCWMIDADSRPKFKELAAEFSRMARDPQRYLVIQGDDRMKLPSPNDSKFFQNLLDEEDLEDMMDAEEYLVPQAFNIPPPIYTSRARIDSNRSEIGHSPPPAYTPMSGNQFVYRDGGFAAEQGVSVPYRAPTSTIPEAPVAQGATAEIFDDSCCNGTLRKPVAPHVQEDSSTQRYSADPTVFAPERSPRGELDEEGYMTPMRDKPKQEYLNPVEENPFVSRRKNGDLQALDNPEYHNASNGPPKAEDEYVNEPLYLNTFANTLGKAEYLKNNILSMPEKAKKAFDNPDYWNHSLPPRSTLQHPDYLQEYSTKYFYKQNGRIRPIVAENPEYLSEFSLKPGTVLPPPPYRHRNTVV
Tyrosine-protein kinase Blk (Homo sapiens), sequence (P51451 2-505 limits assumed): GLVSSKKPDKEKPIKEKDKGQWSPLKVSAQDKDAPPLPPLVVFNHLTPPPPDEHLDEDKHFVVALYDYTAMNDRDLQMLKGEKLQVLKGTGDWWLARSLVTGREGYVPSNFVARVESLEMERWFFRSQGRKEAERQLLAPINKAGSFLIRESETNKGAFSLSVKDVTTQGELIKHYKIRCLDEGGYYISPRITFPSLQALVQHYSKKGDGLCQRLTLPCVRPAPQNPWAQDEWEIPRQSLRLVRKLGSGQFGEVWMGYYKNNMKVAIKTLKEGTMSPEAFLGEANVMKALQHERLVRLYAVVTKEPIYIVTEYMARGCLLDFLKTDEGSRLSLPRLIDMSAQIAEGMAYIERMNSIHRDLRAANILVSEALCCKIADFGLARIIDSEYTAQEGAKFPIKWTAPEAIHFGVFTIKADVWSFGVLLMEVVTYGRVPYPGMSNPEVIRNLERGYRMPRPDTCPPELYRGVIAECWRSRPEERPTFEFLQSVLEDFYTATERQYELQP

As for `C=CC(=O)Nc1cc(Nc2ncc(Cl)c(O[C@@H]3CO[C@H]4[C@@H]3OC[C@H]4OC)n2)ccc1N(C)CCN(C)C`, the inhibition was 9% in data set [1]; 40% in [2]; 98% in data set [5]; 106% in data set [6]; 99% in [8]; “Dde” in data set [9]. Further, the inhibition in data set [16] was found to be 60%. For the same molecule, the outcome in data set [3] was Active. Moreover, the Activity in data set [4] was 21.31%; in [10] it was 21.98%; in [13], “Non-Toxic”. In addition, the figures for the IC50 in data set [7], in data set [14] and in data set [15] were 8 nM, 165 nM and 22.9 nM, respectively. Moreover, the inhibition result in data set [11] was “Active”. The same molecule gave a bioavailability in data set [12] of 20.7%.
